Test results from patent US9611262B2, “Substituted 2-azabicycles and their use as orexin receptor modulators” (JANSSEN PHARMACEUTICA NV, priority 2014, dated 2017).

Key:
[1] = target: human orexin 1 receptor (Homo sapiens (Human), UniProt O43613); test: Human orexin 1 receptor radioligand binding (competitive); details: CHO cells stably expressing human orexin 1 receptor; 4 nM radioligand; averages of 2-20 runs; read-out: hOX1 Ki
Protocol: The in vitro affinity of the compounds of the invention for the rat/human orexin 1 and human orexin 2 receptors was determined by competitive radioligand binding using [^3H](1-(5-(2-fluoro-phenyl)-2-methyl-thiazol-4-yl)-1-((S)-2-(5-phenyl-(1,3,4)oxadiazol-2-ylmethyl)-pyrrolidin-1-yl)-methanone) (Langmead et al., 2004) and [^3H]EMPA (n-ethyl-2[96-methoxy-pyridin-3-yl)-(toluene-2-sulfonyl)-amino]-N-pyridin-3-ylmethyl acetamide), respectively (Langmead et al., 2004, British Journal of Pharmacology 141:340-346; Malherbe et al., 2004, British Journal of Pharmacology 156:1326-41).
Data are analyzed using pc-Sandy macro and graphed on Graphpad Prism 5. For analysis, each concentration point is averaged from triplicate values and the averaged values are plotted on Graphpad Prism. The IC50 was determined by applying the following equation (GraphPad Prism 5.0, San Diego) for one site competition where X=log (concentration) and Y=specific binding. Top denotes the total [^3H]— (1-(5-(2-fluoro-phenyl)-2-methyl-thiazol-4-yl)-1-((S)-2-(5-phenyl-(1,3,4)oxadiazol-2-ylmethyl)-pyrrolidin-1-yl)-methanone) binding, bottom denotes the nonspecific [^3H]— (1-(5-(2-fluoro-phenyl)-2-methyl-thiazol-4-yl)-1-((S)-2-(5-phenyl-(1,3,4)oxadiazol-2-ylmethyl)-pyrrolidin-1-yl)-methanone) binding. Graphpad Prism calculates Ki value from IC50 and the pre-determined Kd values for [^3H]— (1-(5-(2-fluoro-phenyl)-2-methyl-thiazol-4-yl)-1-((S)-2-(5-phenyl-(1,3,4)oxadiazol-2-ylmethyl)-pyrrolidin-1-yl)-methanone) and [^3H]-EMPA. The Ki for each compound is then uploaded into 3DX. Each run comprises individual compounds in triplicate. The data in Table 1 and Table 2 represent averages from between 2-20 runs
Rat and Human Orexin 1 Receptor Radioligand Binding Studies
Human Embryonic Kidney 293 cells (HEK293) stably expressing rat orexin 1 receptor (Genebank accession number NM_001525) or Chinese ovary cells (CHO) stably expressing human orexin 1 receptor (Genebank accession number […]) were grown to confluency in DMEM (Hyclone, cat # SH30022), 10% FBS, 1× Pen/Strep, 1× sodium pyruvate, 10 mM HEPES, 600 μg/mL G418 and DMEM/F12 (Gibco, Cat #11039), 10% FBS, 1× Pen/Strep, 600 μg/mL G418 media, respectively on 150 cm^2 tissue culture plates, washed with 5 mM EDTA in PBS (HyClone Dulbecco's Phosphate Buffered Saline 1× with Calcium and Magnesium, Cat # SH30264.01, hereafter referred to simply as PBS) and scraped into 50 ml tubes. After centrifugation (2K×G, 5 min at 4° C.), the supernatant was aspirated and the pellets frozen and stored at −80° C. Cells were resuspended in PBS in the presence of 1 tablet of protease inhibitor cocktail (Roche, Cat. #11836145001) per 50 mL. […] Competition binding experiments in 96 well polypropylene plates were performed using [^3H]— (1-(5-(2-fluoro-phenyl)-2-methyl-thiazol-4-yl)-1-((S)-2-(5-phenyl-(1,3,4)oxadiazol-2-ylmethyl)-pyrrolidin-1-yl)-methanone) (Moraveck Corporation, specific activity=35.3 Ci/mmol), diluted to a 10 nM concentration in PBS (4 nM final). Compounds were solubilized in 100% DMSO (Acros Organics, Cat. #61042-1000) and tested over a range of 7 concentrations (from 0.1 nM to 10 μM). The final concentration of DMSO in the reactions is equal to or less than 0.1%. Total and nonspecific binding was determined in the absence and presence of 10 μM almorexant. The total volume of each reaction is 200 μL (20 μL of diluted compounds, 80 μL of [^3H]— (1-(5-(2-fluoro-phenyl)-2-methyl-thiazol-4-yl)-1-((S)-2-(5-phenyl-(1,3,4)oxadiazol-2-ylmethyl)-pyrrolidin-1-yl)-methanone) diluted in PBS and 100 μL of the cell suspension). Reactions were run for 60 min at room temperature and terminated by filtration through GF/C filter plates (PerkinElmer, Cat. #6005174) presoaked in 0.3% polyethylenimine using the cell harvester (PerkinElmer Filtermate). The plates were washed 3 times by aspirating 30 ml PBS through the plates. Plates were dried in 55° C. oven for 60 min, scintillation fluid was added, and the radioactivity was counted on a Topcount (Packard). […]

[2] = target: human orexin 2 receptor (Homo sapiens (Human), UniProt O43614); test: Human orexin 2 receptor radioligand binding ([3H]-EMPA competition); details: HEK293 stably expressing human orexin 2 receptor; 2 nM [3H]-EMPA; averages of 2-20 runs; read-out: hOX2 Ki
human orexin 2 receptor, sequence (O43614 whole entry): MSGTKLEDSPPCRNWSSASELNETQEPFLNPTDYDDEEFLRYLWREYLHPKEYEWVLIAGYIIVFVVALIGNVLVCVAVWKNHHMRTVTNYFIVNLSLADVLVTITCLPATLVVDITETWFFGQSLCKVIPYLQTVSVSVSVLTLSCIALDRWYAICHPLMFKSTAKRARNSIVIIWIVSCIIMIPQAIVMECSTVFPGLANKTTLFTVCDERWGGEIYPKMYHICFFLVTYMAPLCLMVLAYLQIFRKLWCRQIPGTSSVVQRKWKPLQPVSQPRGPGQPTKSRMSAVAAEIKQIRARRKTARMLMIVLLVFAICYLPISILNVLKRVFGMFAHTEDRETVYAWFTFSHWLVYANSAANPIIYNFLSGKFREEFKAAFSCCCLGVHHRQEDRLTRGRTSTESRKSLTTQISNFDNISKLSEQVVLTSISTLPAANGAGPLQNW
Procedure, shortened: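 Membranes-free whole HEK293 cells stably expressing human OX2 receptor incubated with [3H]-EMPA and compound (7 concentrations, 0.1 nM–10 μM, ≤0.1% DMSO) for 60 min at room temperature; nonspecific binding with 10 μM almorexant. Filtration and scintillation counting; one-site IC50 converted to Ki using predetermined Kd, triplicates averaged over 2-20 runs.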

[3] = target: rat orexin 1 receptor (Rattus norvegicus, UniProt P56718); test: Rat orexin 1 receptor radioligand binding (competitive); details: HEK293 cells stably expressing rat orexin 1 receptor; 4 nM radioligand; averages of 2-20 runs; read-out: rOX1 Ki
Procedure, shortened: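 Competition binding used HEK293 cells expressing rat OX1 or CHO cells expressing human OX1, with 4 nM final [3H]-labelled thiazolyl-oxadiazolyl-pyrrolidinyl methanone radioligand in PBS. Compounds were tested at 7 concentrations (0.1 nM–10 μM) for 60 min at room temperature, then filtered; 10 μM almorexant defined nonspecific binding. Ki was derived from the one-site IC50 and the radioligand Kd.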

human orexin 1 receptor, sequence (O43613 whole entry): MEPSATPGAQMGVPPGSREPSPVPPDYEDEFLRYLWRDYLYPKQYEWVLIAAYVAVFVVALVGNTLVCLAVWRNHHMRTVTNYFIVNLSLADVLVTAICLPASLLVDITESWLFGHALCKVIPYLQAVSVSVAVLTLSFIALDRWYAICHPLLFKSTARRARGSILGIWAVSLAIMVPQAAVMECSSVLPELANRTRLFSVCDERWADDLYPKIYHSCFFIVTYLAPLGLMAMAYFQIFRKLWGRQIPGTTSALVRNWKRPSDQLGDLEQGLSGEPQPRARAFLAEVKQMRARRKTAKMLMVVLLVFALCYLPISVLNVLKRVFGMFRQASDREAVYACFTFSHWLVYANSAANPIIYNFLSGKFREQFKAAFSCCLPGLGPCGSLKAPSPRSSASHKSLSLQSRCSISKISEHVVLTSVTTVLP

Row | SMILES | Ki [1] [nM] | Ki [2] [nM] | Ki [3] [nM]
1 | Cc1ccc(-n2nccn2)c(C(=O)N2C(C)C3CC(Nc4ccc(C(F)(F)F)cn4)C2C3)n1 (racemic) [Example 58, (R/S)-(6-methyl-3-(2H-1,2,3-triazol-2-yl)pyridin-2-yl)(3-methyl-6-((5-(trifluoromethyl)pyridin-2-yl)amino)-2-azabicyclo[2.2.1]heptan-2-yl)methanone] | 14 | 236 | 11
2 | Cc1cnc(C(=O)N2C(C)C3CC(Nc4ccc(C(F)(F)F)cn4)C2C3)c(-c2ncccn2)c1 (racemic) [Example 59, (R/S)-(5-methyl-3-(pyrimidin-2-yl)pyridin-2-yl)(3-methyl-6-((5-(trifluoromethyl)pyridin-2-yl)amino)-2-azabicyclo[2.2.1]heptan-2-yl)methanone] | 53 | 4100 | 20
3 | CC(C)CC1C2CC(Oc3ccc(C(F)(F)F)cn3)C(C2)N1C(=O)c1ccccc1-c1ncccn1 (racemic) [Example 209, (R/S)-[2-isobutyl-5-[[5-(trifluoromethyl)-2-pyridyl]oxy]-3-azabicyclo[2.2.1]heptan-3-yl]-(2-pyrimidin-2-ylphenyl)methanone] | 24 | 3000 | 44
4 | CC(C)CC1C2CC(Oc3ccc(C(F)(F)F)cn3)C(C2)N1C(=O)c1ccccc1-c1ncc(F)cn1 (racemic) [Example 212, (R/S)-[2-(5-fluoropyrimidin-2-yl)phenyl]-[2-isobutyl-5-[[5-(trifluoromethyl)-2-pyridyl]oxy]-3-azabicyclo[2.2.1]heptan-3-yl]methanone] | 55 | 3800 | 100
5 | CCC1C2CC(Oc3ccc(C(F)(F)F)cn3)C(C2)N1C(=O)c1ncc(C)cc1-n1nccn1 (racemic) [Example 216, (R/S)-[2-ethyl-5-[[5-(trifluoromethyl)-2-pyridyl]oxy]-3-azabicyclo[2.2.1]heptan-3-yl]-[5-methyl-3-(triazol-2-yl)-2-pyridyl]methanone] | 11 | 1500 | 11
6 | C[C@@H]1[C@H]2C[C@@H](Oc3ccc(C(F)(F)F)cn3)[C@H](C2)N1C(=O)c1cc(F)ccc1-n1nccn1 (relative stereo) [Example 29, (5-fluoro-2-(2H-1,2,3-triazol-2-yl)phenyl)((1S*,3R*,4R*,6R*)-3-methyl-6-((5-(trifluoromethyl)pyridin-2-yl)oxy)-2-azabicyclo[2.2.1]heptan-2-yl)methanone] | 14 | 836 | 5
7 | C[C@@H]1[C@H]2C[C@@H](Oc3ccc(C(F)(F)F)cn3)[C@H](C2)N1C(=O)c1ncccc1-c1ncccn1 (relative stereo) [Example 32, ((1S*,3R*,4R*,6R*)-3-methyl-6-((5-(trifluoromethyl)pyridin-2-yl)oxy)-2-azabicyclo[2.2.1]heptan-2-yl)(3-(pyrimidin-2-yl)pyridin-2-yl)methanone] | 8 | 1900 | 6
8 | C[C@@H]1[C@H]2C[C@@H](Oc3ccc(C(F)(F)F)nc3)[C@H](C2)N1C(=O)c1cccc(F)c1-n1nccn1 (relative stereo) [Example 38, (3-fluoro-2-(2H-1,2,3-triazol-2-yl)phenyl)((1S*,3R*,4R*,6R*)-3-methyl-6-((6-(trifluoromethyl)pyridin-3-yl)oxy)-2-azabicyclo[2.2.1]heptan-2-yl)methanone] | 283 | 4900 | 216
9 | Cc1cccc(C(=O)N2[C@H](C)[C@H]3C[C@@H](Oc4ccc(C(F)(F)F)nc4)[C@@H]2C3)c1-n1nccn1 (relative stereo) [Example 39, (3-methyl-2-(2H-1,2,3-triazol-2-yl)phenyl)((1S*,3R*,4R*,6R*)-3-methyl-6-((6-(trifluoromethyl)pyridin-3-yl)oxy)-2-azabicyclo[2.2.1]heptan-2-yl)methanone] | 123 | 3600 | 90
10 | Cc1ccc(-n2nccn2)c(C(=O)N2[C@H](C)[C@H]3C[C@@H](Oc4cnc(C(F)(F)F)cn4)[C@@H]2C3)n1 (relative stereo) [Example 46, (6-methyl-3-(2H-1,2,3-triazol-2-yl)pyridin-2-yl)((1S*,3R*,4R*,6R*)-3-methyl-6-((5-(trifluoromethyl)pyrazin-2-yl)oxy)-2-azabicyclo[2.2.1]heptan-2-yl)methanone] | 29 | 4300 | 24

The remaining compounds from weak to strong by Ki [1], led by results:

Row | Ki [1] [nM] | Ki [2] [nM] | Ki [3] [nM] | SMILES
11 | 170 | 418 | 177 | Cc1cnc(C(=O)N2C(CC(C)C)C3CC(Oc4ccc(C(F)(F)F)cn4)C2C3)c(-n2nccn2)c1 (racemic) [Example 208, (R/S)-[2-isobutyl-5-[[5-(trifluoromethyl)-2-pyridyl]oxy]-3-azabicyclo[2.2.1]heptan-3-yl]-[5-methyl-3-(triazol-2-yl)-2-pyridyl]methanone]
12 | 29 | 1500 | 32 | O=C(c1c(F)cccc1-c1ncco1)N1C(CF)C2CC(Oc3ccc(C(F)(F)F)cn3)C1C2 (racemic) [Example 71]
13 | 14 | 6300 | 11 | Cc1cnc(C(=O)N2[C@H](C)[C@H]3C[C@@H](Oc4ccc(C(F)(F)F)cn4)[C@@H]2C3)c(-c2ncccc2F)c1 (relative stereo) [Example 34, (3-fluoro-5′-methyl-[2,3′-bipyridin]-2′-yl)((1S*,3R*,4R*,6R*)-3-methyl-6-((5-(trifluoromethyl)pyridin-2-yl)oxy)-2-azabicyclo[2.2.1]heptan-2-yl)methanone]
14 | 9 | 243 | 13 | CCC1C2CC(Oc3ccc(C(F)(F)F)cn3)C(C2)N1C(=O)c1cccc(F)c1-c1ncccn1 (racemic) [Example 217, (R/S)-[2-ethyl-5-[[5-(trifluoromethyl)-2-pyridyl]oxy]-3-azabicyclo[2.2.1]heptan-3-yl]-(3-fluoro-2-pyrimidin-2-yl-phenyl)methanone]
15 | 8 | 595 | 5 | C[C@@H]1[C@H]2C[C@@H](Oc3ccc(C(F)(F)F)cn3)[C@H](C2)N1C(=O)c1cccc(F)c1-n1nccn1 (relative stereo) [Example 27, (3-fluoro-2-(2H-1,2,3-triazol-2-yl)phenyl)((1S*,3R*,4R*,6R*)-3-methyl-6-((5-(trifluoromethyl)pyridin-2-yl)oxy)-2-azabicyclo[2.2.1]heptan-2-yl)methanone]
